The results in this text go back to PubChem BioAssay (NCI).

Some test systems named below: M19-MEL melanoma; XF 498 CNS; HOP-18 NSCLC; LXFL 529 NSCLC; KM20L2 colon; DMS 273 small cell lung; RXF-631 renal.
Holding throughout (test): NCI tumour cell line growth inhibition, 48 h

Several values for one entry are separate records, joined by “and”; a condition that tells them apart may be missing. Equal values may be shown once.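 In this assay, cells in 96-well plates receive the compound at five concentrations for 48 hours. Endpoints are linearly interpolated between the surrounding concentrations. GI50 = concentration required for 50% inhibition of growth. TGI denotes the concentration required for complete inhibition of growth.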

With `COc1cc(/C=C/C(=O)c2cccc3ccccc23)cc(OC)c1OC`, the TGI turned out to be 38.2 µM in the assay on M19-MEL melanoma; 20.5 µM in the assay on XF 498 CNS; 24.8 µM with HOP-18 NSCLC; 10.3 µM with LXFL 529 NSCLC; 13.6 µM in the assay on KM20L2 colon; 23.9 µM in the assay on DMS 273 small cell lung.
As to `O=C(CCc1nc(=S)[nH][nH]1)Nc1cc(Cl)ccc1Cl`, the TGI in the assay on M19-MEL melanoma, in the assay on HOP-18 NSCLC, in the assay on LXFL 529 NSCLC, in the assay on KM20L2 colon, with DMS 273 small cell lung and in the assay with RXF-631 renal was > 100 µM throughout.
For the molecule `NC1=NN(c2ccccc2)C(=O)C1C(=O)C(=O)Nc1ccc(Cl)cc1` (configuration not stated), the TGI with M19-MEL melanoma, with HOP-18 NSCLC, in the assay with LXFL 529 NSCLC, in the assay on KM20L2 colon, in the assay with DMS 273 small cell lung and with RXF-631 renal was > 100 µM each time.
On to `Cc1ccccc1NC(=O)CC1C(=O)Nc2ccccc2S1=O` (configuration not stated), for which the TGI in the assay on M19-MEL melanoma, with XF 498 CNS, with LXFL 529 NSCLC, with KM20L2 colon, in the assay on DMS 273 small cell lung and in the assay with RXF-631 renal was > 100 µM each time.
Regarding `O=C(NCCCCCCCCCCCCNC(=O)c1cnc2ccccc2n1)c1cnc2ccccc2n1`, the TGI in the assay on M19-MEL melanoma is > 100 µM; with HOP-18 NSCLC, 79.4 µM; in the assay on LXFL 529 NSCLC, > 100 µM; in the assay on KM20L2 colon, > 100 µM; in the assay with DMS 273 small cell lung, > 100 µM; with RXF-631 renal, > 100 µM.
Turning to `CC(=O)Nc1ccccc1-c1nc2ccccc2nc1-c1ccccc1`, the TGI with M19-MEL melanoma, in the assay on XF 498 CNS, with HOP-18 NSCLC, in the assay with LXFL 529 NSCLC, in the assay with KM20L2 colon and with DMS 273 small cell lung was > 100 µM each time.
With `CC(=O)OC1C[C@H]2C(OC(=O)c3ccccc3)C3C4(OC(C)=O)COC4C[C@H](OC(C)=O)[C@@]3(C)C(OC(C)=O)[C@H](OC(C)=O)C(=C1C)C2(C)C` (some centres not stated), the TGI in the assay with M19-MEL melanoma is > 100 µM; in the assay on XF 498 CNS, 63.8 µM; in the assay on HOP-18 NSCLC, > 100 µM; in the assay with LXFL 529 NSCLC it was > 100 µM; in the assay on KM20L2 colon, > 100 µM; in the assay with DMS 273 small cell lung, > 100 µM.
In the case of `Cc1ccccc1/C=C/c1csnn1`, the TGI in the assay with M19-MEL melanoma, in the assay on XF 498 CNS, in the assay with HOP-18 NSCLC, in the assay with LXFL 529 NSCLC, in the assay with KM20L2 colon and in the assay with DMS 273 small cell lung was > 100 µM throughout. Further, the TGI in the assay with RXF-631 renal was > 100 µM.
Take `CCOC(=O)c1oc2c(OC)ccc3c2c1CCC3`: the TGI in the assay with M19-MEL melanoma, in the assay with XF 498 CNS, in the assay on LXFL 529 NSCLC, with KM20L2 colon, in the assay on DMS 273 small cell lung and in the assay with RXF-631 renal was > 100 µM in each case.
For the molecule `CCCCCCCCSC(=O)NCCCC`, the TGI in the assay on M19-MEL melanoma is > 100 µM; with XF 498 CNS it was 47.2 µM; in the assay on HOP-18 NSCLC, > 100 µM; in the assay on LXFL 529 NSCLC, > 100 µM; in the assay with KM20L2 colon, 62.5 µM; in the assay with DMS 273 small cell lung, > 100 µM. Besides, the TGI in the assay with RXF-631 renal is > 100 µM.
`O=C1c2c(O)cccc2C(C(=O)CCCCCC(=O)C2c3cccc(O)c3C(=O)c3c(O)cccc32)c2cccc(O)c21`: the GI50 in the assay with M19-MEL melanoma was 2.4 µM; with HOP-18 NSCLC it was 7.95 µM; with LXFL 529 NSCLC, 7.58 µM; with KM20L2 colon it was 15.4 µM; in the assay with RXF-631 renal, 2.99 µM. In addition, the TGI in the assay on M19-MEL melanoma is 2.5 µM and 9.2 µM; in the assay on XF 498 CNS, 1.2 µM; in the assay on HOP-18 NSCLC, 4.28 µM and 14.9 µM; in the assay with LXFL 529 NSCLC, 2.78 µM and 14.2 µM; with KM20L2 colon it was 13.1 µM and 47.6 µM; in the assay with DMS 273 small cell lung it was 13.3 µM. Further, in the assay on RXF-631 renal, the TGI was 7.98 µM and 13.6 µM.
`COc1ccc(C(c2ccccc2C(=O)O)c2ccc(OC)c3ccccc23)c2ccccc12`: the TGI was determined as 27.6 µM in the assay on M19-MEL melanoma; 46.7 µM in the assay on XF 498 CNS; 13.4 µM with HOP-18 NSCLC; 20.7 µM in the assay with LXFL 529 NSCLC; 26.5 µM with KM20L2 colon; 32.4 µM in the assay with DMS 273 small cell lung.
Regarding `CC12Nc3ccccc3C1=C(c1ccccc1)CC1C(=O)OC(=O)C12` (configuration not stated), the TGI in the assay on M19-MEL melanoma, with XF 498 CNS, in the assay with LXFL 529 NSCLC, with KM20L2 colon, in the assay with DMS 273 small cell lung and in the assay on RXF-631 renal was > 100 µM in each case.
Turning to `N#CCCN(CCC#N)c1ccc(/C=C(/NC(=O)c2cc([N+](=O)[O-])ccc2Cl)C(=O)N=[N+]=[N-])cc1`, the TGI in the assay on M19-MEL melanoma, in the assay on HOP-18 NSCLC, in the assay on LXFL 529 NSCLC, in the assay on KM20L2 colon, in the assay on DMS 273 small cell lung and in the assay on RXF-631 renal was > 100 µM in each case.
Consider `CC(Oc1cc2oc(=O)cc(-c3ccccc3)c2cc1Cl)C(=O)O` (configuration not stated), for which the TGI with M19-MEL melanoma, with XF 498 CNS, in the assay with HOP-18 NSCLC, in the assay with LXFL 529 NSCLC, in the assay with KM20L2 colon and in the assay with RXF-631 renal was > 100 µM throughout.
Regarding `CCCCC(C(=O)C(=O)Nc1ccc(C)cc1C)C(=O)C(C)C` (configuration not stated), the TGI in the assay with M19-MEL melanoma, in the assay on XF 498 CNS, in the assay on HOP-18 NSCLC, with LXFL 529 NSCLC, with KM20L2 colon and in the assay with DMS 273 small cell lung was > 100 µM throughout. Also, the TGI with RXF-631 renal is > 100 µM.
Turning to `C/C(NNC(=O)c1ccccc1O)=C1\C=Nc2ccccc2S1`, the TGI was > 100 µM in the assay on M19-MEL melanoma; > 100 µM with XF 498 CNS; 49.6 µM in the assay on HOP-18 NSCLC; > 100 µM in the assay on LXFL 529 NSCLC; > 100 µM in the assay with KM20L2 colon; > 100 µM with DMS 273 small cell lung.
Turning to `O=C(CCC(=O)Nc1ccccc1C(F)(F)F)N/N=C1\C(=N\NC(=O)CCC(=O)Nc2ccccc2C(F)(F)F)C(c2ccc3c(c2)OCO3)Oc2ccccc21` (configuration not stated), the TGI in the assay on M19-MEL melanoma is > 100 µM; in the assay on XF 498 CNS, > 87.6 µM; with HOP-18 NSCLC, > 100 µM; in the assay with KM20L2 colon, > 100 µM; in the assay on DMS 273 small cell lung, > 100 µM; with RXF-631 renal, > 100 µM.
